Test results taken from patent US9796984B2, “Protection against herbivores” (priority 2004, dated 2017).
Read-outs that look alike come from different tables or passages of the source.

Tests used:
LeARG1 [1] = assay: Effect of various compounds on arginase activity, LeARG1; assay type: biochemical, Lycopersicon esculentum (tomato)
Method: (§1) Homogenates were centrifuged at 20,000×g for 10 min at 4° C., and the supernatants were used as the enzyme source. Recombinant LeARG enzyme was prepared as described above. Protein concentrations were determined as described above. Arginase activity was measured with a spectrophotometric assay for detection of urea (Alabadi et al., Plant Physiol. 112:1237-1244 (1996)), with minor modifications. The enzyme solution was activated with 1 mM MnCl2 at 37° C. for 60 min. […] Reactions were carried out at 37° C. for 20 min and stopped by the addition of 500 μl of 15% (v/v) perchloric acid. A 200-μl aliquot was mixed vigorously with 3 ml of acid mixture [9% (v/v) of phosphoric acid and 27% (v/v) of sulfuric acid] and 100 μl of 3% (w/v) α-isonitrosopropiophenone (Sigma) in 95% ethanol. This mixture was heated in a boiling water bath in the dark for 60 min and cooled for 10 min to room temperature. The OD540 was recorded on a Uvikon 933 spectrophotometer (Research Instruments, San Diego, Calif.). Substrate specificity tests were performed as described above with the exception that agmatine and other related compounds were added in place of L-arginine, to a final concentration of 250 mM. Substrates tested were obtained from Sigma. […] Inhibitor studies were conducted with test compounds that were dissolved in water and then diluted into the assay buffer at various concentrations prior to addition of enzyme. For example, 1 μl of a 5-mM L-NOHA stock was added to 489 μl of assay buffer, followed by addition of 10 μl of enzyme solution. The reaction was carried out as described above. L-NOHA was obtained from Cayman Chemical (Ann Arbor, Mich.). [table]

LeARG2 [2] = assay: Effect of various compounds on arginase activity, LeARG2; assay type: biochemical, Lycopersicon esculentum (tomato)
Method: as §1

LeARG1 [3] = assay: Substrate specificity of tomato arginases (urea detection), recombinant LeARG1; assay type: biochemical, Lycopersicon esculentum (tomato); conditions: 250 mM substrate; for Activity: 50 mM CHES pH 9.6, 2 mM MnCl2, 37° C., 30 min, mean and SD of triplet reactions; for activity relative to that obtained with L-arginine: pH 9.6
LeARG2 [4] = assay: Substrate specificity of tomato arginases (urea detection), recombinant LeARG2; assay type: biochemical, Lycopersicon esculentum (tomato); conditions: 250 mM substrate; for Activity: 50 mM CHES pH 9.6, 2 mM MnCl2, 37° C., 30 min, mean and SD of triplet reactions; for activity relative to that obtained with L-arginine: pH 9.6
Bovine arginase = molecular target: T1, Bovine arginase (Bos taurus, UniProt Q2KJ64); assay: Substrate specificity (urea detection), bovine arginase; assay type: biochemical; conditions: 250 mM substrate; for Activity: 50 mM CHES pH 9.6, 2 mM MnCl2, 37° C., 30 min, mean and SD of triplet reactions; for activity relative to that obtained with L-arginine: pH 9.6
T1 sequence (Q2KJ64 1-322): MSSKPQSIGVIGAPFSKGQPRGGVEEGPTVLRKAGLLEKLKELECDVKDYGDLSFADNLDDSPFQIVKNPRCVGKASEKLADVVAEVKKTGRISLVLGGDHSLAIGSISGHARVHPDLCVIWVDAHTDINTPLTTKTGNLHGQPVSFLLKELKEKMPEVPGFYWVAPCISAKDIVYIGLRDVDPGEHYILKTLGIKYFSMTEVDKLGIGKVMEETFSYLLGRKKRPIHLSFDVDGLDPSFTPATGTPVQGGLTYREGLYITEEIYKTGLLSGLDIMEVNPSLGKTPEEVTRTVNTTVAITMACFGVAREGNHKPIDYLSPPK

LeARG2 [5] = assay: RNA blot analysis of LeARG2 transcripts in treated tomato leaves; set-up: species or system Lycopersicon esculentum (tomato); conditions: in vivo
LeARG1 [6] = assay: RNA blot analysis of LeARG1 transcripts in treated tomato leaves; set-up: species or system Lycopersicon esculentum (tomato); conditions: in vivo
threonine deaminase (TD) [7] = molecular target: T2, threonine deaminase (TD) (Solanum lycopersicum, UniProt P25306); assay type: biochemical; conditions: midgut extracts of larvae grown on WT plants; Ile up to mM
T2 construct: from tissue; host or cells: desalted crude extracts of methyl-JA-treated tomato leaves, and of midgut content of M. sexta larvae reared on WT tomato
T2 sequence (P25306 52-418): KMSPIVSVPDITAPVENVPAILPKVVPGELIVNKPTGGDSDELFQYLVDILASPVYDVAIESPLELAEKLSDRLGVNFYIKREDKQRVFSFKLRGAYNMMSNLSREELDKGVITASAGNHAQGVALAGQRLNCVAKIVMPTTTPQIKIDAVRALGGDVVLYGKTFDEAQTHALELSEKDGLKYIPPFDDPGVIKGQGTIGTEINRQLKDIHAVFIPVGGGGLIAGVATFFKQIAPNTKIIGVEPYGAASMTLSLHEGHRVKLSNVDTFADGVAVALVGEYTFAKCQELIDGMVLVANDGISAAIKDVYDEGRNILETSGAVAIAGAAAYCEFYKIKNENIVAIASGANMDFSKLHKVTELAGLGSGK

threonine deaminase (TD) [8] = assay type: biochemical; conditions: extracts of methyl-JA-treated tomato leaves
tomato arginase = assay: Inhibition of tomato arginase by NOHA; assay type: biochemical, Lycopersicon esculentum (tomato)
Method: as §1, with “Mich.).” for “Mich.). [table]”

arginase activity = assay: L-arginase activity in tomato leaf protein extracts; assay type: biochemical, Lycopersicon esculentum (tomato); conditions: exogenous MeJA vapor
[9] = compound 5.0 mM, 25 mM L-arginine, % of control reaction
[10] = compound 0.2 mM, 25 mM L-arginine, % of control reaction

Which results are given for OCCS [2-Mercaptoethanol]?
Relative activity (%) (LeARG1 [1]): 81%; Relative activity (%) (LeARG2 [2]): 80%

With CC(S)C(=O)O (centres unmarked) [2-Mercaptopropionate] as the compound, how does the “Relative activity (%)” value (LeARG1 [1]; [9]) read?
Its value is 38%.

What about the “Relative activity (%)” value (LeARG2 [2]; [9]) of the same compound?
Its value is 38%.

For O=C(O)CCS [3 -Mercaptopropionate], which “Relative activity (%)” value (LeARG1 [1]; [9]) is on record?
The value was 24%.

What about the “Relative activity (%)” value (LeARG2 [2]; [9]) of the same compound?
The value was 26%.

With N=C(N)NCCCCN [Agmatine] as the compound, how does the Activity (LeARG1 [3]) read?
The Activity was 40 ± 3 μmol/mg protein/h.

And the “activity relative to that obtained with L-arginine” value (shortened to “activity relative to that obtained”) (LeARG1 [3])?
The value was “(0.5%)”.

And the Activity (LeARG2 [4])?
The Activity was 41 ± 6 μmol/mg protein/h.

And the “activity relative to that obtained” value (LeARG2 [4])?
Its value is “(0.6%)”.

And the Activity (Bovine arginase)?
The Activity was 12 ± 2 μmol/mg protein/h.

And the “activity relative to that obtained” value (Bovine arginase)?
Its value is “(0.2%)”.

Which results are given for CC[C@H]1C=C(C(=O)N[C@@]2(C(=O)O)C[C@@H]2CC)[C@H]2CCC(=O)[C@H]2C1 [COR, coronatine]?
LeARG2 expression in leaves (LeARG2 [5]): necessary and sufficient; LeARG1 expression in leaves (LeARG1 [6]): not induced

What does the source list for N=C(N)NOCC[C@H](N)C(=O)O [Canavanine]?
Activity (LeARG1 [3]): 3 ± 1 μmol/mg protein/h; activity relative to that obtained with L-arginine (LeARG1 [3]): (<0.1%); Activity (LeARG2 [4]): 9 ± 1 μmol/mg protein/h; activity relative to that obtained with L-arginine (LeARG2 [4]): (0.1%); Activity (Bovine arginase): 14 ± 2 μmol/mg protein/h; activity relative to that obtained with L-arginine (Bovine arginase): (0.2%)

With N=C(N)NCCC[C@@H](N)C(=O)O [D-Arginine] as the compound, how does the Activity (LeARG1 [3]) read?
Its Activity is 195 ± 2 μmol/mg protein/h.

And the “activity relative to that obtained” value (LeARG1 [3])?
The value was “(2.2%)”.

What about the Activity (LeARG2 [4]) of the same compound?
The Activity was 250 ± 5 μmol/mg protein/h.

What about the “activity relative to that obtained” value (LeARG2 [4]) of the same compound?
Its value is “(3.6%)”.

And the Activity (Bovine arginase)?
Its Activity is 32 ± 13 μmol/mg protein/h.

What about the “activity relative to that obtained” value (Bovine arginase) of the same compound?
The value was “(0.5%)”.

Which results are given for N=C(N)NCCCC[C@H](N)C(=O)O [Homoarginine]?
Activity (LeARG1 [3]): 1269 ± 2 μmol/mg protein/h; activity relative to that obtained with L-arginine (LeARG1 [3]): (14%); Activity (LeARG2 [4]): 916 ± 16 μmol/mg protein/h; activity relative to that obtained with L-arginine (LeARG2 [4]): (13%)

What does the source list for CC[C@H](C)[C@H](N)C(=O)O [Ile, isoleucine]?
TD activity in the presence of Ile (threonine deaminase (TD) [7]): not significantly inhibited; TD activity in the presence of Ile (threonine deaminase (TD) [8]): strongly inhibited

What does the source list for NCCC[C@H](N)C(=O)O [L- Ornithine]?
Relative activity (%) (LeARG1 [1]; [9]): 72%; Relative activity (%) (LeARG2 [2]; [9]): 88%

Which results are given for N=C(N)NCCC[C@H](N)C(=O)O [L-Arginine]?
Activity (LeARG1 [3]): 8848 ± 177 μmol/mg protein/h; activity relative to that obtained with L-arginine (LeARG1 [3]): (100%); Activity (LeARG2 [4]): 7016 ± 86 μmol/mg protein/h; activity relative to that obtained with L-arginine (LeARG2 [4]): (100%); Activity (Bovine arginase): 6608 ± 351 μmol/mg protein/h; activity relative to that obtained with L-arginine (Bovine arginase): (100%)

Which “Relative activity (%)” value (LeARG1 [1]; [10]) does the source give for NC(=NCCC[C@H](N)C(=O)O)NO [L-NOHA, N^G-hydroxy-L-arginine] here?
The value was 7%.

What about the “Relative activity (%)” value (LeARG2 [2]; [10]) of the same compound?
Its value is 5%.

And the “Ki lower than the Km for L-arginine” value (tomato arginase)?
Its value is “more than 1000 fold”.

What about the mode of inhibition (tomato arginase; plant and non-plant arginases) of the same compound?
Its mode of inhibition is “competitive inhibitor”.

What about the Ki (tomato arginase; plant enzymes (LeARG1 and LeARG2)) of the same compound?
Its Ki is ~14 µM.

How did the “arginase activity in leaves after treatment” value (arginase activity) turn out when CC/C=C\CC1C(=O)CCC1CC(=O)OC (centres unmarked) [MeJA] was run?
Its value is “increase”.

What about the “LeARG2 expression in leaves” value (LeARG2 [5]) of the same compound?
Its value is “strongly elicited”.

And the “LeARG1 expression in leaves” value (LeARG1 [6])?
The value was “low level”.

Which “Relative activity (%)” value (LeARG1 [1]; [9]) does the source give for O=C(O)CS [Mercaptoacetate] here?
The value was 28%.

And the “Relative activity (%)” value (LeARG2 [2]; [9])?
Its value is 26%.
